The first test deals with T1, BaF3 BRAF-KIAA1549 fusion cells (Homo sapiens, UniProt P15056).
T1 construct: The BRAF-KIAA1549 fusion mutant was subcloned into pMXs-IRES-Blasticidin (RTV-016, Cell Biolabs, San Diego, CA); No tag given; Q9HCM3 (UPF0606 protein KIAA1549)
T1 sequence (P15056 whole entry, change not shown, the tested form may be a part): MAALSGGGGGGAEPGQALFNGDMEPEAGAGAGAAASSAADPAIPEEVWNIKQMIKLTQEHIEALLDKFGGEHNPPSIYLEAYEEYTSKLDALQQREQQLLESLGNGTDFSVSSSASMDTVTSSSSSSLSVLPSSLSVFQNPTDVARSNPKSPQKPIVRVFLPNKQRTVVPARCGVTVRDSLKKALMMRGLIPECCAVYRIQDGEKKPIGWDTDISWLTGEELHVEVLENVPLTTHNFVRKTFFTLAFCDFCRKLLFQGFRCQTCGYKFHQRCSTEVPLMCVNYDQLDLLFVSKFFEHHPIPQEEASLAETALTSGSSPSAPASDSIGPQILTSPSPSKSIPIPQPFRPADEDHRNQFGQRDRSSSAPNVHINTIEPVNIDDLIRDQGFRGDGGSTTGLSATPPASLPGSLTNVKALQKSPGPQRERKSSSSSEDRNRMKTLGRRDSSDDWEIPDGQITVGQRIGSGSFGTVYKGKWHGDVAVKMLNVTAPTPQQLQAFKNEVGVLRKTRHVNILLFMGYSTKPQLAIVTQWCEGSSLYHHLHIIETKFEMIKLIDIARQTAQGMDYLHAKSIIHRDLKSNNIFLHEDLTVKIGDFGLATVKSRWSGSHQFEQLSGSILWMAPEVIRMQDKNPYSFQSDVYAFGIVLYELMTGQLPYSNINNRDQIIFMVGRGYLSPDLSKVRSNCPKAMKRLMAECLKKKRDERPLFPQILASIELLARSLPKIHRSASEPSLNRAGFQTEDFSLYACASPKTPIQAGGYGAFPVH
The experiment in a line: BaF3 BRAF-KIAA1549 fusion cell proliferation assay (CellTiterGlo, 96 hours). The note with it: Table A1. The class given is cell-based. Here is the method:
Retroviral Production: The BRAF-KIAA1549 fusion mutant was subcloned into pMXs-IRES-Blasticidin (RTV-016, Cell Biolabs, San Diego, CA). Retrovirus was produced by transfection of HEK 293T cells with the retroviral BRAF mutant expression vector pMXs-IRES-Blasticidin (RTV-016, Cell Biolabs), pCMV-Gag-Pol vector and pCMV-VSV-G-Envelope vector. Briefly, HEK 293T cells were plated in Poly-D-lysine coated 6-well plate (2.5×10^5 cells per well) and incubated overnight. The next day, retroviral plasmids (1 μg of BRAF-KIAA fusion mutant, 0.32 μg of pCMV-Gag-Pol and 0.165 μg pCMV-VSV-G) were mixed in 300 μL of Optimem (31985, Life Technologies). The mixture was incubated at room temperature for 5 minutes and then added to Optimem containing transfection reagent Lipofectamine (11668, Invitrogen) and incubated for 20 minutes. The mixture was then added dropwise to HEK 293T cells. The next day the medium was replaced with fresh culture medium and retrovirus was harvested at 24 hours.
Generation of BRAF-KIAA1549 fusion stable cell line: BaF3 cells were plated in V-bottom 96 well plate (COSTAR #3894) in 80 μL of RPMI/10% FBS and 0.01 ng/mL mouse IL-3, supplemented with 8 μg/mL polybrene (4×10^4 cells/well). Cells were transduced with 20 μL of BRAF-KIAA1549 fusion viral supernatant by centrifuging for 30 minutes at 1000 rpm. Cells were placed in a 37° C. incubator overnight. Next day 100 μL of RPMI/10% FBS and 0.01 ng/mL mouse IL-3 was added. After 24 hours, 100 μL of cells were transferred to a 24 well plate containing 900 μL of RPM/10% FBS and 15 μg/mL Blasticidin. Contents of the 24 well plate were sampled for cell viability via CellTiterGlo (Promega) over a 2-week period.
Assay for cell proliferation: BaF3 BRAF-KIAA1549 fusion cells were resuspended at 1.5×10^5 c/mL in RPMI containing 10% Heat Inactivated FBS, 1% L-glutamine and dispensed in duplicate (7×10^4 c/well) into 384 well plates. To determine the effect of compound on cell proliferation, BaF3 BRAF-KIAA1549 fusion cells were incubated for 96 hours in the presence of vehicle control (DMSO) or compound at varying concentrations. Inhibition of cell growth was determined by luminescent quantification (Envision by Perkin Elmer) of intracellular ATP content using CellTiterGlo (Promega), according to the protocol provided by the manufacturer. To determine the IC50 values, the vehicle-treated cells were normalized as viable cells and analyzed using the CDD Vault, Collaborative Drug Discovery, Burlingame, CA (the Levenberg-Marquardt algorithm; Levenberg, K., […]; Marquardt, D., 1963).
Tables A1 and A2 assign each compound a code for potency in the BaF3 BRAF-KIAA1549 fusion cell proliferation assay: A, B, C, or D. According to the code, A represents an IC50 value <20 nM; B represents an IC50 value ≥20 nM and <100 nM; C represents an IC50 value ≥100 nM and <500 nM; and D represents an IC50 value ≥500 nM.
For orientation: ATP-based viability assays read luminescence as a measure of living cells.
As a reminder, the GI50 is the concentration that inhibits growth by half. `CNc1cc2ncc(-c3cc(NC(=O)c4cc(C(F)F)ccn4)cnc3C)cc2cn1` [Compound 22, 4-(Difluoromethyl)-N-(6-methyl-5-(7-(methylamino)-1,6-naphthyridin-3-yl)pyridin-3-yl)picolinamide] gave a GI50 of 0.02 to 0.1 µM. In turn, `CNc1cc2ncc(-c3ccc(F)c(NC(=O)c4cc(C(C)(C)C#N)ccn4)c3)cc2cn1` [Compound 45, 4-(2-Cyanopropan-2-yl)-N-(2-fluoro-5-(7-(methylamino)-1,6-naphthyridin-3-yl)phenyl)picolinamide] returned a GI50 of 0.1 to 0.5 µM.

As for `CNc1cc2ncc(-c3cc(F)cc(NC(=O)c4cc(C(C)(C)C#N)ccn4)c3)cc2cn1` [Compound 47, 4-(2-Cyanopropan-2-yl)-N-(3-fluoro-5-(7-(methylamino)-1,6-naphthyridin-3-yl)phenyl)picolinamide], the GI50 lay within 0.1 to 0.5 µM. Turning to `CNc1cc2ncc(-c3cc(NC(=O)c4ccnc(C(C)(C)C#N)c4)cnc3C)cc2cn1` [Compound 55, 2-(2-Cyanopropan-2-yl)-N-(6-methyl-5-(7-(methylamino)-1,6-naphthyridin-3-yl)pyridin-3-yl)isonicotinamide], the GI50 was under 0.02 µM. As for `CNc1cc2ncc(-c3cc(NC(=O)c4ccnc(C(C)(C)C#N)c4)ccc3C)cc2cn1` [Compound 56, 2-(2-Cyanopropan-2-yl)-N-(4-methyl-3-(7-(methylamino)-1,6-naphthyridin-3-yl)phenyl)isonicotinamide], the GI50 was 0.02 to 0.1 µM. Same read-out and setting: under `Cc1ncc(NC(=O)c2cc(C(C)(C)C#N)ccn2)cc1-c1cnc2cc(N)ncc2c1` [Compound 176, N-(5-(7-amino-1,6-naphthyridin-3-yl)-6-methylpyridin-3-yl)-4-(2-cyanopropan-2-yl)picolinamide] stands 0.02 to 0.1 µM; under `CNc1cc2ncc(-c3cc(NC(=O)c4cc(C(F)(F)F)c(C)cn4)cnc3C)cc2cn1` [Compound 25, 5-Methyl-N-(6-methyl-5-(7-(methylamino)-1,6-naphthyridin-3-yl)pyridin-3-yl)-4-(trifluoromethyl)picolinamide], 0.02 to 0.1 µM.

In turn, `CNc1cc2ncc(-c3cc(NC(=O)c4cc(C(F)(F)F)ccn4)cnc3C)cc2cn1` [Compound 20, N-(6-Methyl-5-(7-(methylamino)-1,6-naphthyridin-3-yl)pyridin-3-yl)-4-(trifluoromethyl)picolinamide] returned a GI50 of under 0.02 µM.

As for `CNc1cc2ncc(-c3cc(NC(=O)c4cc(C(F)(F)F)ccn4)nnc3C)cc2cn1` [Compound 75, N-(6-methyl-5-(7-(methylamino)-1,6-naphthyridin-3-yl)pyridazin-3-yl)-4-(trifluoromethyl)picolinamide], the GI50 fell in the range of 0.02 to 0.1 µM. `CNc1cc2ncc(-c3cc(NC(=O)c4cc(C5(C#N)CCC5)ccn4)ccc3C)cc2cn1` [Compound 15, 4-(1-Cyanocyclobutyl)-N-(4-methyl-3-(7-(methylamino)-1,6-naphthyridin-3-yl)phenyl)picolinamide] came in with a GI50 of 0.02 to 0.1 µM.

The same test, now with this note: Table A2.
As for `CNc1cc2ncc(-c3cc(NC(=O)c4noc5c4C[C@H](C)CC5)ccc3C)cc2cn1` (single isomer, unassigned) [Compound 237], the GI50 lay within 0.02 to 0.1 µM. `CNc1cc2ncc(-c3cc(NC(=O)c4cnc5n4CCC(C)C5)ccc3C)cc2cn1` (stereo not drawn) [Compound 195, 7-methyl-N-(4-methyl-3-(7-(methylamino)-1,6-naphthyridin-3-yl)phenyl)-5,6,7,8-tetrahydroimidazo[1,2-a]pyridine-3-carboxamide] gave a GI50 of at least 0.5 µM. For `CNc1cc2ncc(-c3cc(NC(=O)c4n[nH]c5c4CCCC5(C)C)ccc3C)cc2cn1` [Compound 262, 7,7-dimethyl-N-(4-methyl-3-(7-(methylamino)-1,6-naphthyridin-3-yl)phenyl)-4,5,6,7-tetrahydro-1H-indazole-3-carboxamide], the GI50 lay within 0.02 to 0.1 µM.

In turn, `CNc1cc2c(C#N)cc(-c3cc(NC(=O)c4ccnc(C(F)(F)F)c4)ccc3C)cc2cn1` [Compound 273, N-(3-(5-cyano-3-(methylamino)isoquinolin-7-yl)-4-methylphenyl)-2-(trifluoromethyl)isonicotinamide] registered a GI50 of 0.1 to 0.5 µM.

As to `CNc1ncc2cc(-c3cc(NC(=O)c4ccnc(C5(F)CC5)c4)ccc3C)cnc2c1Cl` [Compound 269, N-[3-[8-chloro-7-(methylamino)-1,6-naphthyridin-3-yl]-4-methyl-phenyl]-2-(1-fluorocyclopropyl)pyridine-4-carboxamide], the GI50 lay within 0.1 to 0.5 µM. In the case of `CNc1cc2ncc(-c3cc(NC(=O)c4cnc5n4CCCC5)ccc3C)cc2cn1` [Compound 216, N-(4-methyl-3-(7-(methylamino)-1,6-naphthyridin-3-yl)phenyl)-5,6,7,8-tetrahydroimidazo[1,2-a]pyridine-3-carboxamide], the GI50 lay within 0.1 to 0.5 µM.

`CNc1cc2ncc(-c3cc(NC(=O)c4cccc(C5(C#N)CC5)c4)cnc3C)cc2cn1` [Compound 191, 3-(1-cyanocyclopropyl)-N-(6-methyl-5-(7-(methylamino)-1,6-naphthyridin-3-yl)pyridin-3-yl)benzamide] showed a 50% growth inhibitory concentration (GI50) of 0.02 to 0.1 µM.

As for `CNc1cc2ncc(-c3cc(NC(=O)c4n[nH]c5c4C[C@H]4C[C@@H]54)cnc3C)cc2cn1` [Compound 253, (4aR,5aR)—N-(6-methyl-5-(7-(methylamino)-1,6-naphthyridin-3-yl)pyridin-3-yl)-4,4a,5,5a-tetrahydro-1H-cyclopropa[4,5]cyclopenta[1,2-c]pyrazole-3-carboxamide], the GI50 lay within 0.02 to 0.1 µM.

On to `CNc1cc2ncc(-c3cc(NC(=O)c4ccnc(C(C)(C)F)c4)c(F)cc3C)cc2cn1` [Compound 222, N-(2-fluoro-4-methyl-5-(7-(methylamino)-1,6-naphthyridin-3-yl)phenyl)-2-(2-fluoropropan-2-yl)isonicotinamide], for which the GI50 was in the range of 0.02 to 0.1 µM. Take `CNc1cc2ncc(-c3cc(NC(=O)N4CC[C@@H](CC(F)(F)F)C4)ccc3C)cc2cn1` (single isomer, unassigned) [Compound 267]: the GI50 is under 0.02 µM. Consider `CNc1cc2ncc(-c3cc(NC(=O)c4cccc5c4CCC[C@@H]5O)cnc3C)cc2cn1` (single isomer, unassigned) [Compound 207], for which the GI50 was at least 0.5 µM. `CNc1cc2ncc(-c3cc(NC(=O)c4n[nH]c5c4CC(C)CC5)ccc3C)cc2cn1` (stereo not drawn) [Compound 261, 5-methyl-N-(4-methyl-3-(7-(methylamino)-1,6-naphthyridin-3-yl)phenyl)-4,5,6,7-tetrahydro-1H-indazole-3-carboxamide]: the GI50 is under 0.02 µM. The same measure, in the same setting: as for `CCC(OC)c1ccnc(C(=O)Nc2cnc(C)c(-c3cnc4cc(NC)ncc4c3)c2)c1` (stereo not drawn) [Compound 260, 4-(1-methoxypropyl)-N-(6-methyl-5-(7-(methylamino)-1,6-naphthyridin-3-yl)pyridin-3-yl)picolinamide], the figure is 0.02 to 0.1 µM.

Molecule `CNc1cc2ncc(-c3cc(NC(=O)c4cccc5c4CCC[C@H]5O)cnc3C)cc2cn1` (single isomer, unassigned) [Compound 208] had a GI50 of at least 0.5 µM. For `CNc1cc2ncc(-c3cc(C(=O)Nc4cccc(C(C)(C)C#N)c4)cnn3)cc2cn1` [Compound 196, N-(3-(2-cyanopropan-2-yl)phenyl)-6-(7-(methylamino)-1,6-naphthyridin-3-yl)pyridazine-4-carboxamide], the GI50 is at least 0.5 µM.

`CNc1cc2ncc(-c3cc(NC(=O)c4cc(C(F)(F)F)ccn4)c(F)cc3C)cc2cn1` [Compound 224, N-(2-fluoro-4-methyl-5-(7-(methylamino)-1,6-naphthyridin-3-yl)phenyl)-4-(trifluoromethyl)picolinamide]: the GI50 lay within 0.1 to 0.5 µM. The molecule `CNc1ncc2cc(-c3cc(NC(=O)c4ccnc(C(C)(C)C#N)c4)cnc3C)cnc2c1C#N` [Compound 192, N-[5-[8-cyano-7-(methylamino)-1,6-naphthyridin-3-yl]-6-methyl-3-pyridyl]-2-(1-cyano-1-methyl-ethyl)pyridine-4-carboxamide] yielded a GI50 of 0.1 to 0.5 µM.

These data come from US20250017914A1, “6-AZA-QUINOLINE DERIVATIVES AND RELATED USES” (Black Diamond Therapeutics, Inc., priority 2021, published 2025).
